This is an account of results in ChEMBL document CHEMBL1131085, “Structure-activity relationships for a series of bis(phenylalkyl)amines: potent subtype-selective inhibitors of N-methyl-D-aspartate receptors” (J Med Chem, 1998).

As a reminder, the IC50 is the concentration that gives 50% inhibition. Read a low IC50 as greater potency in that assay.

Holding throughout (format): cell-based, Oocyte
For assay [1], the target named is Glutamate NMDA receptor; Grin1/Grin2a (Rattus norvegicus, UniProt P35439+Q00959). Put plainly: Functional antagonism by electrical assays in Xenopus oocytes expressing 1A/2A NMDA receptor subtype.
Glutamate NMDA receptor; Grin1/Grin2a, sequence (Q00959 whole entry, other chains not shown): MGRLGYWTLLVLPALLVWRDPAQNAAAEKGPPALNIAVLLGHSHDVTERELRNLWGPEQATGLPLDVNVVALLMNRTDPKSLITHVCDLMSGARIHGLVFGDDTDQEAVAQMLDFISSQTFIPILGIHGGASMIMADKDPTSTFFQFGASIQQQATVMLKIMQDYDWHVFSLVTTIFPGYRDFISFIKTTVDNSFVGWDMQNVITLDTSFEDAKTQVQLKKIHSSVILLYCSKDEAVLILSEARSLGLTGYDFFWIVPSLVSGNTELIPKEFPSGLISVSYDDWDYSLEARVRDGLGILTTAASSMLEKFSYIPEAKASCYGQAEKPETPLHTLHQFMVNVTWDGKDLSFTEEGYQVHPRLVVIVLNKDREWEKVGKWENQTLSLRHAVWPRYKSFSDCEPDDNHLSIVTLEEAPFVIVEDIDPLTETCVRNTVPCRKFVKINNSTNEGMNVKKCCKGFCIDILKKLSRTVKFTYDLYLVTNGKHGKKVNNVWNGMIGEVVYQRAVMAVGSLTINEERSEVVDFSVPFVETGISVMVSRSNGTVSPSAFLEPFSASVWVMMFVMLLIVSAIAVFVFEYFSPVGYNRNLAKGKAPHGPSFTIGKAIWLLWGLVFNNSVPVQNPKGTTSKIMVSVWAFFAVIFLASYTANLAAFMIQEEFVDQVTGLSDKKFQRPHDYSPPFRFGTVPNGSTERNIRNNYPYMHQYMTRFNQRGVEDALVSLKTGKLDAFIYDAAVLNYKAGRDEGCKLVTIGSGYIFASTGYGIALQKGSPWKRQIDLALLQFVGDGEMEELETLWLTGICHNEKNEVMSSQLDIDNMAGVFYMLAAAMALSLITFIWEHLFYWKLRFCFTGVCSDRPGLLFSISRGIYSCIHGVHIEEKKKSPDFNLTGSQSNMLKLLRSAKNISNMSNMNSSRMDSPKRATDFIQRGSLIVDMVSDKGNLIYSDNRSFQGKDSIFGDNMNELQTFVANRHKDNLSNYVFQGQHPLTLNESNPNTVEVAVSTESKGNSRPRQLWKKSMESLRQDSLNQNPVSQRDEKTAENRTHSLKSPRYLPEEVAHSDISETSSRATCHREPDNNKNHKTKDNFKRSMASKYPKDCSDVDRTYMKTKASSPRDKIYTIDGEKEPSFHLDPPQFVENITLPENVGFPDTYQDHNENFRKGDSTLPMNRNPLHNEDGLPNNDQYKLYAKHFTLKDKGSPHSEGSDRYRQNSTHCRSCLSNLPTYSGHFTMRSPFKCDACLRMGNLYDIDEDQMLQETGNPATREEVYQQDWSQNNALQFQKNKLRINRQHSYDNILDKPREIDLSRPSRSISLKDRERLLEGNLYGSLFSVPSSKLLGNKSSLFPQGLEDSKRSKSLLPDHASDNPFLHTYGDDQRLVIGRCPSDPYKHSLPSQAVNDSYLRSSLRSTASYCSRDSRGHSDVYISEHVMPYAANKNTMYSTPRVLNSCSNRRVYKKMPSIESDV
The target of assay [2] is Glutamate NMDA receptor; Grin1/Grin2b (Rattus norvegicus, UniProt P35439+Q00960). In words: Functional antagonism by electrical assays in Xenopus oocytes expressing the 1A/2B NMDA receptor.
Glutamate NMDA receptor; Grin1/Grin2b, sequence (Q00960 whole entry, other chains not shown): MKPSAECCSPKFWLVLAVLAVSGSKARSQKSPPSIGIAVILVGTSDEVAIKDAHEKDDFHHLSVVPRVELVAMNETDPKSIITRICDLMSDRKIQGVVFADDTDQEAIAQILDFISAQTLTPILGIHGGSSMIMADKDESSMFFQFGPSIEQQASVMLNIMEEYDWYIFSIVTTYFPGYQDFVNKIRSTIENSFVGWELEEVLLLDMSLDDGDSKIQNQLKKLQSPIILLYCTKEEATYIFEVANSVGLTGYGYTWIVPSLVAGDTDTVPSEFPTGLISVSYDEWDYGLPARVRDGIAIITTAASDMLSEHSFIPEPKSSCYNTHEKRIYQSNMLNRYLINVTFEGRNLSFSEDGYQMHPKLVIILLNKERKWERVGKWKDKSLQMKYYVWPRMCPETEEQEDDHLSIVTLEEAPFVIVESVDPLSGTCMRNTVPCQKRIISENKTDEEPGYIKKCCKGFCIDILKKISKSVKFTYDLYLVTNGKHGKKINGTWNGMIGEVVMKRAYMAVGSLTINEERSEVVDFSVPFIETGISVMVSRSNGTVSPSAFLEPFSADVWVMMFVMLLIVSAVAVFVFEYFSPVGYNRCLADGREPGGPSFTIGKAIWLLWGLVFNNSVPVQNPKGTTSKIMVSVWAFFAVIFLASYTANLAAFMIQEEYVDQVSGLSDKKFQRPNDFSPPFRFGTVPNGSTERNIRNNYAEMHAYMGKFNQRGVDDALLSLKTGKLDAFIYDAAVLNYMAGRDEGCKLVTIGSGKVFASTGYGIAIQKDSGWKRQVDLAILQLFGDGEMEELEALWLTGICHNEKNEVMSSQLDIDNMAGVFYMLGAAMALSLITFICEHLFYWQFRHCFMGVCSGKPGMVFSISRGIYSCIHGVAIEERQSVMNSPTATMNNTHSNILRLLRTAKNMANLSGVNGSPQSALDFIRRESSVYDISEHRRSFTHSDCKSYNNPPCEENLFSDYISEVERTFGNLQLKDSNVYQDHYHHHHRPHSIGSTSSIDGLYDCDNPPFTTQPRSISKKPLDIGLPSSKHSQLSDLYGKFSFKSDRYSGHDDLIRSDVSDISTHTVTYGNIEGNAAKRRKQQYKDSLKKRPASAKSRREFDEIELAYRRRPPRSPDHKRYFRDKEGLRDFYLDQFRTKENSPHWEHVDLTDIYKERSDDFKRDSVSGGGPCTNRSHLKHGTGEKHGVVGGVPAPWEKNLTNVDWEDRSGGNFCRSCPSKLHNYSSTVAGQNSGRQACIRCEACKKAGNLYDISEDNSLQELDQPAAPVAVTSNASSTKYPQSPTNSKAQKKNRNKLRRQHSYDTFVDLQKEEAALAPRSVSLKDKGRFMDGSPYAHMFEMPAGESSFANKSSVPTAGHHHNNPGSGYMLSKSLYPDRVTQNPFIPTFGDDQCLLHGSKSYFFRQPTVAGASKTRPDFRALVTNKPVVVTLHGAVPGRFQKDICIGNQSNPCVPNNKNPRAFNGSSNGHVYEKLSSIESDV
Assay [3] has as its target Glutamate NMDA receptor; Grin1/Grin2c (Rattus norvegicus, UniProt P35439+Q00961). In words: Functional antagonism by electrical assays in Xenopus oocytes expressing the 1A/2C NMDA receptor.

A value given as a limit tells only on which side of the number the result lay.

Glutamate NMDA receptor; Grin1/Grin2c, sequence (Q00961 whole entry, other chains not shown): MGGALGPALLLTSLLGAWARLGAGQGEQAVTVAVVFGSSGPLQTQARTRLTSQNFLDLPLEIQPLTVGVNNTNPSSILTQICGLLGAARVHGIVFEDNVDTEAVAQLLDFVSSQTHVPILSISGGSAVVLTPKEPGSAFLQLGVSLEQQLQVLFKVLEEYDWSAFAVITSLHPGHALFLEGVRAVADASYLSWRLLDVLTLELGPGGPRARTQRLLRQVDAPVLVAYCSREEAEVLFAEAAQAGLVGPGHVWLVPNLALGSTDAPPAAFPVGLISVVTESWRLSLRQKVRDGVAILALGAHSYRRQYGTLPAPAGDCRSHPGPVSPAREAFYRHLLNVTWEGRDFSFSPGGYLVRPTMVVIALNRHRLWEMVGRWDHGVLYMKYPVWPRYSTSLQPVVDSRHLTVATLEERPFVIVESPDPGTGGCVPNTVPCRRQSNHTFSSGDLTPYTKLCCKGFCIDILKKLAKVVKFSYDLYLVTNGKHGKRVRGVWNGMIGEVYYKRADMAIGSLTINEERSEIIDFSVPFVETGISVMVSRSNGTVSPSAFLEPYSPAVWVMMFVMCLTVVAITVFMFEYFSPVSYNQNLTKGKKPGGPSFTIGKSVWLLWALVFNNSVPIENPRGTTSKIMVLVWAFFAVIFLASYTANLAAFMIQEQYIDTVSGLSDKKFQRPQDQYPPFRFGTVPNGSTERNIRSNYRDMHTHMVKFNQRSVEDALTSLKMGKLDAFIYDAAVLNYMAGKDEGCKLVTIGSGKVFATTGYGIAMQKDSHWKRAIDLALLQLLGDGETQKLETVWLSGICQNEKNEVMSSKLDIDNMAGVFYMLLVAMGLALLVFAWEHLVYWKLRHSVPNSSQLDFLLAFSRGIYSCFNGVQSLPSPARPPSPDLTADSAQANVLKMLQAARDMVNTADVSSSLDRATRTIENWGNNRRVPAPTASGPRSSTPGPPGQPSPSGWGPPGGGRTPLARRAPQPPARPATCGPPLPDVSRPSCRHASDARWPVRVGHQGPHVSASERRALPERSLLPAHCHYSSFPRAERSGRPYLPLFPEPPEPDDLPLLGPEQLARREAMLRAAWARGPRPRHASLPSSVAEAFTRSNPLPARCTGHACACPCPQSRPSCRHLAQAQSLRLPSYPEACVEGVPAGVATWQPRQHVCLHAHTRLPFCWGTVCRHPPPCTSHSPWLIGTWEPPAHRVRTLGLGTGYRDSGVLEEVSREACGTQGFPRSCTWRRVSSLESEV

`Oc1ccc(CCNCCCCc2ccccc2)cc1`: the figures for the IC50 in assay [1], in assay [2] and in assay [3] were 15 µM, 0.043 µM and 65 µM, respectively.
Take `Oc1ccc(CCOCCCCc2ccccc2)cc1`: the figures for the half-inhibitory concentration (IC50) in assay [1], in assay [2] and in assay [3] were above 100 µM, 3.7 µM and above 100 µM, respectively.
With `Oc1ccc(CCNCCCCCc2ccccc2)cc1`, the IC50 in assay [1] was determined as 12 µM; in assay [2], 0.008 µM; in assay [3], 39 µM.
On to `c1ccc(CCCCNCCc2ccccc2)cc1`, for which the half-inhibitory concentration (IC50) in assay [1] stood at 46 µM; in assay [2], 3.5 µM; in assay [3], 36 µM.
As to `c1ccc(CCCNCCc2ccccc2)cc1`, the IC50 in assay [1] was above 100 µM; in assay [2], 7.3 µM; in assay [3], above 100 µM.
Regarding `CCN(CCCCc1ccccc1)CCc1ccc(O)cc1`, the results for the 50% inhibitory concentration (IC50) in assay [1], in assay [2] and in assay [3] were 27 µM, 0.3 µM and 88 µM, respectively.
The corresponding values for `Oc1ccc(CCNCCCc2ccccc2)cc1` are 26 µM, 0.096 µM and above 100 µM.
The corresponding values for `Oc1ccc(CCCNCCCCCc2ccccc2)cc1` are 18 µM, 0.045 µM and 39 µM.
As to `Oc1ccc(CCNCCCCCCc2ccccc2)cc1`, the IC50 in assay [1] was 17 µM; in assay [2], 0.035 µM; in assay [3], 30 µM.
As for `Oc1ccc(CCCNCCCCc2ccccc2)cc1`, the 50% inhibitory concentration (IC50) came to 18 µM in assay [1], 0.015 µM in assay [2] and 48 µM in assay [3].
In the case of `C[C@H](CCc1ccccc1)N[C@H](C)[C@@H](O)c1ccc(O)cc1`, the IC50 in assay [2] came to 0.18 µM; in assay [3], 42 µM.
For the compound `Oc1ccc(CCN2CCC(Cc3ccccc3)CC2)cc1`, the figures for the IC50 in assay [1], in assay [2] and in assay [3] were 57 µM, 0.2 µM and above 100 µM, respectively.
As to `c1ccc(CCN2CCC(Cc3ccccc3)CC2)cc1`, the values for the 50% inhibitory concentration (IC50) in assay [1], in assay [2] and in assay [3] were above 100 µM, 1.1 µM and above 100 µM, respectively.
